Results: patent EP0579804B1, “BIOLOGICAL ARTIFICIAL LIVER” (MONSANTO COMPANY, priority 1992, dated 1993)

System: Hepatocytes
Test: extracorporeal hepatic metabolism in the hepatocyte bioreactor attached to an ahepatic pig
Type: in vitro ADME, outbred Yorkshire/white pig
Conditions: administered into the ultrafiltrate at the inlet of the bioreactor; metabolites 7-OH-coumarin and monoethylglycinexylidide (MEGX) measured at the outlets of the bioreactors
Procedure: The medium used was the hormone-supplemented Waymouth medium as described in Example 1. To accommodate 2 to 5 billion cells, the bioreactor was scaled up to two containment vessels, each with an internal diameter of 40 mm and a height of 100 mm. Glass beads of approx. 2 mm diameter and a total volume of 250 ml per containment vessel were used. Medium was perfused at a recycle rate of 360 ml/min.. […] The bioreactor was attached to an ahepatic pig (liver removed by surgery to mimic total hepatic failure) at approx. 2 hrs. after hepatocyte inoculation. Blood from the left femoral artery was directed into a Minntech hemoconcentrator. A 12 fringe elecath canula was inserted into the femoral artery and connected to a 1/4" PVC tubing to the hemoconcentrator. The hemoconcentrator separated the blood into a cell free ultrafiltrate fraction, and a blood cell fraction. The blood cell fraction was returned to the femoral vein via a similar tubing. The ultrafiltrate exited the hemoconcentrator via a 1/4" PVC tubing and entered the hepatocyte bioreactor system with the flow rate adjusted to 40 ml/min. using a roller pump. […] The respective metabolites, 7-OH-coumarin and monoethylglycinexylidide (MEGX), were measured at the outlets of the bioreactors before the ultrafiltrate was returned to the animal.

metabolism: Significant metabolism
Structure (SMILES): CCOc1ccc2ccc(=O)oc2c1 [7-ethoxycoumarin]
